Experimental data: US20150105252A1, “SUBSTITUTED PYRAZOLES AS HERBICIDES” (E I DU PONT DE NEMOURS AND COMPANY, priority 2013, published 2015)

Tests used:
[1] = test system: nutsedge, purple; assay: Test E preemergence; format: in vivo, Cyperus rotundus; conditions: 21 days, scale 0 to 100
Excerpt: (§1) Seeds of plant species selected from bermudagrass (Cynodon dactylon), Surinam grass (Brachiaria decumbens), crabgrass, large (large crabgrass, Digitaria sanguinalis), crabgrass, naked (naked crabgrass, Digitaria nuda), foxtail, green (green foxtail, Setaria viridis), johnsongrass (Sorghum halepense), kochia (Kochia scoparia), morningglory (pitted morningglory, Ipomoea lacunosa), nutsedge, purple (purple nutsedge, Cyperus rotundus), ragweed (common ragweed, Ambrosia elation), mustard, black (black mustard, Brassica nigra), guineagrass (Panicum maximum), dallisgrass (Paspalum dilatatum), barnyardgrass (Echinochloa crus-galli), sandbur (southern sandbur, Cenchrus echinatus), sowthistle (common sowthistle, Sonchus oleraceous), ryegrass, Italian (Italian ryegrass, Lolium multiflorum), signalgrass (broadleaf signalgrass, Brachiaria platyphylla), dayflower, VA (Virginia (VA) dayflower, Commelina virginica), bluegrass (annual bluegrass, Poa annua), quackgrass (Elytrigia repens), mallow (common mallow, Malva sylvestris), buckwheat, wild (wild buckwheat, Polygonum convolvulus), leafy spurge (Euphorbia esula), common chickweed (Stellaria media), wild poinsettia (Euphorbia heterophylla), pigweed, palmer (palmer pigweed, Amaranthus palmeri), and pigweed (redroot pigweed, Amaranthus retroflexus) were planted into a blend of loam soil and sand and treated preemergence with test chemicals formulated in a non-phytotoxic solvent mixture which included a surfactant.
(§2) Treated plants and controls were maintained in a greenhouse for 21 days, after which time all species were compared to controls and visually evaluated. Plant response ratings, summarized in Table E, are based on a scale of 0 to 100 where 0 is no effect and 100 is complete control. A dash (-) response means no test result.

[2] = test system: signalgrass; assay: Test E preemergence; format: in vivo, Brachiaria platyphylla; conditions: 21 days, scale 0 to 100
Excerpt: as §1, §2

[3] = test system: dayflower, VA; assay: Test E preemergence; format: in vivo, Commelina virginica; conditions: 21 days, scale 0 to 100
Excerpt: as §1, §2

[4] = test system: pigweed; assay: Test E preemergence; format: in vivo, Amaranthus retroflexus; conditions: 21 days, scale 0 to 100
Excerpt: as §1, §2

[5] = test system: corn; assay: Test F postemergence; format: in vivo, Zea mays; conditions: scale 0 to 100
Excerpt: (§3) Seeds of plant species selected from corn (Zea mays), soybean (Glycine max), velvetleaf (Abutilon theophrasti), lambsquarters (Chenopodium album), wild poinsettia (Euphorbia heterophylla), pigweed, palmer (palmer pigweed, Amaranthus palmeri), common waterhemp (Amaranthus rudis), surinam grass (Brachiaria decumbens), large crabgrass (Digitaria sanguinalis), crabgrass, Brazil (Brazilian crabgrass, Digitaria horizontalis), fall panicum (Panicum dichotomiflorum), giant foxtail (Setaria faberii), green foxtail (Setaria viridis), goosegrass (Eleusine indica), johnsongrass (Sorghum halepense), common ragweed (Ambrosia elation), barnyardgrass (Echinochloa crus-galli), southern sandbur (Cenchrus echinatus), arrowleaf sida (Sida rhombifolia), Italian ryegrass (Lolium multiflorum), dayflower, VA (Virginia (VA) dayflower, Commelina virginica), field bindweed (Convolvulus arvensis), cocklebur (common cocklebur, Xanthium strumarium), morningglory (Ipomoea coccinea), nightshade (eastern black nightshade, Solanum ptycanthum), kochia (Kochia scoparia), yellow nutsedge (Cyperus esculentus), and hairy beggarticks (Bidens pilosa), were planted into a silt loam soil and treated preemergence with test chemicals formulated in a non-phytotoxic solvent mixture which included a surfactant.
(§4) At the same time, plants from these crop and weed species and also horseweed (Canada horseweed, Conyza canadensis), smartweed (ladysthumb smartweed, Polygonum persicaria), waterhemp_RES1, (ALS & Triazine resistant common waterhemp, Amaranthus rudis), and waterhemp_RES2, (ALS & HPPD resistant common waterhemp, Amaranthus rudis) were treated with postemergence applications of test chemicals formulated in the same manner. Plants ranged in height from 2 to 18 cm for postemergence treatments (1- to 4-leaf stage). Treated plants and controls were maintained in a greenhouse for 14 to 21 days, after which time all species were compared to controls and visually evaluated. Plant response ratings, summarized in Table F, are based on a scale of 0 to 100 where 0 is no effect and 100 is complete control. A dash (-) response means no test result.

[6] = test system: soybean; assay: Test F postemergence; format: in vivo, Glycine max; conditions: scale 0 to 100
Excerpt: as §3, §4

[7] = test system: arrowleaf sida; assay: Test F postemergence; format: in vivo, Sida rhombifolia; conditions: scale 0 to 100
Excerpt: as §3, §4

[8] = test system: Italian ryegrass; assay: Test F postemergence; format: in vivo, Lolium multiflorum; conditions: scale 0 to 100
Excerpt: as §3, §4

[9] = test system: smartweed; assay: Test F postemergence; format: in vivo, Polygonum persicaria; conditions: 500 g ai/ha, scale 0 to 100
Excerpt: as §3, §4

Structure (SMILES)	Plant response rating, Nutsedge, Purple ([1]; 16 g ai/ha)	Plant response rating, Corn ([5]; Postemergence, 31 g ai/ha)	Plant response rating, Corn ([5]; Postemergence, 125 g ai/ha)	Plant response rating, Corn ([5]; Postemergence, 250 g ai/ha)	Plant response rating, Corn ([5]; postemergence, 62 g ai/ha)	Plant response rating, Soybean ([6]; Postemergence, 31 g ai/ha)	Plant response rating, Soybean ([6]; Postemergence, 250 g ai/ha)	Plant response rating, Soybean ([6]; postemergence, 62 g ai/ha)	Plant response rating, Soybean ([6]; postemergence, 500 g ai/ha)	Plant response rating, Arrowleaf Sida ([7]; Postemergence, 31 g ai/ha)	Plant response rating, Arrowleaf Sida ([7]; Postemergence, 125 g ai/ha)	Plant response rating, Arrowleaf Sida ([7]; Postemergence, 250 g ai/ha)	Plant response rating, Arrowleaf Sida ([7]; postemergence, 62 g ai/ha)	Plant response rating, Arrowleaf Sida ([7]; postemergence, 500 g ai/ha)	Plant response rating, Italian Ryegrass ([8]; Postemergence, 31 g ai/ha)	Plant response rating, Italian Ryegrass ([8]; Postemergence, 125 g ai/ha)	Plant response rating, Italian Ryegrass ([8]; Postemergence, 250 g ai/ha)	Plant response rating, Italian Ryegrass ([8]; postemergence, 62 g ai/ha)	Plant response rating, Italian Ryegrass ([8]; postemergence, 500 g ai/ha)	Plant response rating, Smartweed [9]	also measured
CCc1cc(C(=O)NCC(F)(F)F)nn1Cc1ccnc(C(F)(F)F)c1 [Compound 78, 5-ethyl-N-(2,2,2-trifluoroethyl)-1-[[(2-trifluoromethyl)-4-pyridinyl]methyl]-1H-pyrazole-3-carboxamide]	35	15	50	85	20	75	95	80	100	50	75	80	60	95	0	40	60	10	90	100	Plant response rating, Nutsedge, Purple ([1]; 31 g ai/ha): 75; Plant response rating, Nutsedge, Purple ([1]; 62 g ai/ha): 98; Plant response rating, Nutsedge, Purple ([1]; 125 g ai/ha): 100; Plant response rating, Nutsedge, Purple ([1]; 250 g ai/ha): 100; Plant response rating, Signalgrass ([2]; 16 g ai/ha): 70; Plant response rating, Signalgrass ([2]; 31 g ai/ha): 100; Plant response rating, Signalgrass ([2]; 62 g ai/ha): 100; Plant response rating, Signalgrass ([2]; 125 g ai/ha): 100; Plant response rating, Signalgrass ([2]; 250 g ai/ha): 100; Plant response rating, Dayflower, VA ([3]; 16 g ai/ha): 85; Plant response rating, Dayflower, VA ([3]; 31 g ai/ha): 100; Plant response rating, Dayflower, VA ([3]; 62 g ai/ha): 100; Plant response rating, Dayflower, VA ([3]; 125 g ai/ha): 100; Plant response rating, Dayflower, VA ([3]; 250 g ai/ha): 100; Plant response rating, Pigweed ([4]; 16 g ai/ha): 100; Plant response rating, Pigweed ([4]; 31 g ai/ha): 100; Plant response rating, Pigweed ([4]; 62 g ai/ha): 100; Plant response rating, Pigweed ([4]; 125 g ai/ha): 100; Plant response rating, Pigweed ([4]; 250 g ai/ha): 100
CCOc1cc(C(=O)NCC(F)(F)F)nn1Cc1ccnc(C(F)(F)F)c1 [Compound 104]	35	10	50	90	25	95	98	95	95	55	70	80	60	95	0	35	60	15	85	98	Plant response rating, Nutsedge, Purple ([1]; 31 g ai/ha): 80; Plant response rating, Nutsedge, Purple ([1]; 62 g ai/ha): 90; Plant response rating, Nutsedge, Purple ([1]; 125 g ai/ha): 98; Plant response rating, Nutsedge, Purple ([1]; 250 g ai/ha): 100; Plant response rating, Signalgrass ([2]; 16 g ai/ha): 35; Plant response rating, Signalgrass ([2]; 31 g ai/ha): 75; Plant response rating, Signalgrass ([2]; 62 g ai/ha): 100; Plant response rating, Signalgrass ([2]; 125 g ai/ha): 100; Plant response rating, Signalgrass ([2]; 250 g ai/ha): 100; Plant response rating, Dayflower, VA ([3]; 16 g ai/ha): 98; Plant response rating, Dayflower, VA ([3]; 31 g ai/ha): 98; Plant response rating, Dayflower, VA ([3]; 62 g ai/ha): 100; Plant response rating, Dayflower, VA ([3]; 125 g ai/ha): 100; Plant response rating, Dayflower, VA ([3]; 250 g ai/ha): 100; Plant response rating, Pigweed ([4]; 16 g ai/ha): 100; Plant response rating, Pigweed ([4]; 31 g ai/ha): 100; Plant response rating, Pigweed ([4]; 62 g ai/ha): 100; Plant response rating, Pigweed ([4]; 125 g ai/ha): 100; Plant response rating, Pigweed ([4]; 250 g ai/ha): 100; Plant response rating, Soybean ([6]; Postemergence, 125 g ai/ha): 98
CCCc1cc(C(=O)NCC(F)(F)F)nn1Cc1ccnc(C(F)(F)F)c1 [Compound 105]	40	10	40	80	30	70	95	80	100	40	60	80	50	90	0	30	65	15	90	100	Plant response rating, Nutsedge, Purple ([1]; 31 g ai/ha): 70; Plant response rating, Nutsedge, Purple ([1]; 62 g ai/ha): 85; Plant response rating, Nutsedge, Purple ([1]; 125 g ai/ha): 85; Plant response rating, Nutsedge, Purple ([1]; 250 g ai/ha): 95; Plant response rating, Signalgrass ([2]; 16 g ai/ha): 75; Plant response rating, Signalgrass ([2]; 31 g ai/ha): 98; Plant response rating, Signalgrass ([2]; 62 g ai/ha): 98; Plant response rating, Signalgrass ([2]; 125 g ai/ha): 98; Plant response rating, Signalgrass ([2]; 250 g ai/ha): 98; Plant response rating, Dayflower, VA ([3]; 16 g ai/ha): 35; Plant response rating, Dayflower, VA ([3]; 31 g ai/ha): 75; Plant response rating, Dayflower, VA ([3]; 62 g ai/ha): 95; Plant response rating, Dayflower, VA ([3]; 125 g ai/ha): 95; Plant response rating, Dayflower, VA ([3]; 250 g ai/ha): 100; Plant response rating, Pigweed ([4]; 16 g ai/ha): 100; Plant response rating, Pigweed ([4]; 31 g ai/ha): 100; Plant response rating, Pigweed ([4]; 62 g ai/ha): 100; Plant response rating, Pigweed ([4]; 125 g ai/ha): 100; Plant response rating, Pigweed ([4]; 250 g ai/ha): 100; Plant response rating, Soybean ([6]; Postemergence, 125 g ai/ha): 90
CCOc1cc(C(=O)NC(C)C)nn1Cc1ccnc(C(F)(F)F)c1 [Compound 188]		10	60	95	20	98	98	95	98	50	60	70	50	80	5	30	60	10	85	95	Plant response rating, Soybean ([6]; Postemergence, 125 g ai/ha): 95
